Results taken from patent US4400384A, “5-o-Cyanobenzyl-4,5,6,7-tetrahydrothieno [3,2-c] pyridine methanesulfonate and other novel salts thereof” (Sanofi, S.A., priority 1980, dated 1983).
Structures can show the parent of a compound that is named as a salt.

How the values were obtained:
[1] = test system: blood-platelet aggregation (ADP); assay: Inhibitor action on blood-platelet aggregation, ADP method (ex vivo after gastric tube dosing); assay type: in vivo, female rats of the Wistar type; conditions: 100 mg/Kg base equivalent at 48, 24 and 2 h before blood drawing
Experimental: (§1) The inhibitor action on blood-platelet aggregation of the salts of the present invention was determined by two different standard methods known to the art.
(§2) The first method, involving the use of ADP (adenosine diphosphate), is that of Ferrand J. C., Gaich C., Dumas, A.--EVALUATION DE L' EFFET ANTI-AGREGANT DE LA TICLOPIDINE PAR UNE TECHNIQUE SUR SANG TOTAL. COMM. SOCIETE DE BIOLOGIE DE TOULOUSE (TOULOUSE Feb. 9, 1978), RESUME IN: REV MED TOULOUSE, 1978, 14, (SUPPL. 5) 680, referred to hereinafter as the ADP method.
(§3) Groups of 10 female rats of the Wistar type were each dosed with one of the base or one of the salts of the invention and with the corresponding maleate salt of Amselem U.S. Pat. No. 4,097,482, at periods of 48 hours, 24 hours and 2 hours prior to drawing blood for testing by the ADP and collagen techniques referred to above. The active medicaments were administered by means of a gastric tube in the form of a 5% aqueous solution of gum arabic. A dosage level of 100 mg/Kg was used for the base, and for the salts an amount was used sufficient to provide the equivalent amount of the base portion of the salt.

[2] = test system: blood-platelet aggregation (collagen); assay: Inhibitor action on blood-platelet aggregation, collagen method (ex vivo after gastric tube dosing); assay type: in vivo, female rats of the Wistar type; conditions: 100 mg/Kg base equivalent at 48, 24 and 2 h before blood drawing
Experimental: as §1
(§4) The second method is that described in Ferrand J. C., Lale A.--NUMERATION ET AGREGATION PLAQUETTAIRE A L AIDE DE L AUTOCOUNTER. APPLICATION A L ETUDE DE LA TICLOPIDINE. COMM. SYMPOSIUM TECHNICON INDUSTRIE (PARIS, June 15, 1978); Ferrand J. C., Lale A.--EVALUATION EX-VIVO DE L AGREGATION PLAQUETTAIRE PAR UNE TECHNIQUE AUTOMATIQUE SUR SANG TOTAL COMM. SOCIETE FRANCAISE DE BIOLOGIE CLINIQUE (PARIS Sept. 28, 1979); and J. C. Ferrand, A. Lale, D. Aubert and G. Barthelemy--APPRECIATION QUANTITATIVE DE L' ACTIVITE ANTI-AGREGANTE DE LA TICLOPIDINE PAR VOIE AUTOMATIQUE. COMM. REUNION DE L' ASOCIATION FRANCAISE DE PHARMACOLOGISTES DIJON (May 2-3, 1980), and is referred to hereafter as the collagen method.
as §3

[3] = prior art maleate; cited from earlier work
[4] = prior art maleate; cited from earlier work; remark: listed apart in the source
[5] = test system: blood-platelet aggregation; assay: Inhibition of blood-platelet aggregation (general statement); assay type: in vivo; conditions: result in words
Experimental: as §1, §2
as §4, with “method. […]” for “method.”

Compound	BLOOD PLATELET AGGREGATION, ADP, 1 mn 30 s ([1]; controls 0.29, 100 mg/kg)	BLOOD PLATELET AGGREGATION, ADP, 3 mn ([1]; controls 0.40, 100 mg/kg)	BLOOD PLATELET AGGREGATION, COLLAGEN ([2]; controls 2.53, 100 mg/kg)	anti-inflammatory activity (prior art salt) [3]	BLOOD PLATELET AGGREGATION, ADP, 1 mn 30 s ([1]; controls 0.29)	BLOOD PLATELET AGGREGATION, ADP, 3 mn ([1]; controls 0.40)	vasodilator activity (prior art salt) [4]	inhibitor action against blood-platelet aggregation [5]	BLOOD PLATELET AGGREGATION, COLLAGEN ([2]; controls 2.53)
N#Cc1ccccc1CN1CCc2sccc2C1 [Hemifumarate, 5-o-cyanobenzyl-4,5,6,7-tetrahydrothieno [3,2-c] pyridine]	0.76	0.82	0.42						
N#Cc1ccccc1CN1CCc2sccc2C1 [Hemitartrate, 5-o-cyanobenzyl-4,5,6,7-tetrahydrothieno [3,2-c] pyridine]	0.74	0.84	0.74						
N#Cc1ccccc1CN1CCc2sccc2C1 [Hydrochloride, 5-o-cyanobenzyl-4,5,6,7-tetrahydrothieno [3,2-c] pyridine]	0.82	0.82	0.84						
N#Cc1ccccc1CN1CCc2sccc2C1.O=C(O)/C=C\C(=O)O [Maleate, 5-o-cyanobenzyl-4,5,6,7-tetrahydrothieno [3,2-c] pyridine maleate, reference compound]				not free of anti-inflammatory	0.70	0.81	not free of anti-inflammatory or vasodilator activity	substantial activity in the inhibition of blood-platelet aggregation	0.80
N#Cc1ccccc1CN1CCc2sccc2C1 [Nitrate, 5-o-cyanobenzyl-4,5,6,7-tetrahydrothieno [3,2-c] pyridine]	0.84	0.83	0.91						
